From ChEMBL document CHEMBL2074066, “Fluorescent substrates of sister-P-glycoprotein (BSEP) evaluated as markers of active transport and inhibition: evidence for contingent unequal binding sites” (Pharm Res, 2003)

Legend:
Assay type in all cases: functional, cell-based
Bile salt export pump [1] = target: T1, Bile salt export pump (Homo sapiens, UniProt O95342); assay: TP_TRANSPORTER: inhibitory effect of typical BSEP inhibitors (Verapamil & Cyclosporin A) in SK-E2 cells (expressing BSEP)
Bile salt export pump [2] = target: T1, Bile salt export pump; assay: TP_TRANSPORTER: increase in dihydrofluorescein intracellular accumulation (dihydrofluorescein: 1 uM) in SK-E2 cells (expressing BSEP); conditions: for Activity: sk-e2
Bile salt export pump [3] = target: T1, Bile salt export pump; assay: TP_TRANSPORTER: increase in bodipy intracellular accumulation (Bodipy: 0.2 uM) in SK-E2 cells (expressing BSEP); conditions: for Activity: human, sk-e2

T1 sequence (O95342 whole entry): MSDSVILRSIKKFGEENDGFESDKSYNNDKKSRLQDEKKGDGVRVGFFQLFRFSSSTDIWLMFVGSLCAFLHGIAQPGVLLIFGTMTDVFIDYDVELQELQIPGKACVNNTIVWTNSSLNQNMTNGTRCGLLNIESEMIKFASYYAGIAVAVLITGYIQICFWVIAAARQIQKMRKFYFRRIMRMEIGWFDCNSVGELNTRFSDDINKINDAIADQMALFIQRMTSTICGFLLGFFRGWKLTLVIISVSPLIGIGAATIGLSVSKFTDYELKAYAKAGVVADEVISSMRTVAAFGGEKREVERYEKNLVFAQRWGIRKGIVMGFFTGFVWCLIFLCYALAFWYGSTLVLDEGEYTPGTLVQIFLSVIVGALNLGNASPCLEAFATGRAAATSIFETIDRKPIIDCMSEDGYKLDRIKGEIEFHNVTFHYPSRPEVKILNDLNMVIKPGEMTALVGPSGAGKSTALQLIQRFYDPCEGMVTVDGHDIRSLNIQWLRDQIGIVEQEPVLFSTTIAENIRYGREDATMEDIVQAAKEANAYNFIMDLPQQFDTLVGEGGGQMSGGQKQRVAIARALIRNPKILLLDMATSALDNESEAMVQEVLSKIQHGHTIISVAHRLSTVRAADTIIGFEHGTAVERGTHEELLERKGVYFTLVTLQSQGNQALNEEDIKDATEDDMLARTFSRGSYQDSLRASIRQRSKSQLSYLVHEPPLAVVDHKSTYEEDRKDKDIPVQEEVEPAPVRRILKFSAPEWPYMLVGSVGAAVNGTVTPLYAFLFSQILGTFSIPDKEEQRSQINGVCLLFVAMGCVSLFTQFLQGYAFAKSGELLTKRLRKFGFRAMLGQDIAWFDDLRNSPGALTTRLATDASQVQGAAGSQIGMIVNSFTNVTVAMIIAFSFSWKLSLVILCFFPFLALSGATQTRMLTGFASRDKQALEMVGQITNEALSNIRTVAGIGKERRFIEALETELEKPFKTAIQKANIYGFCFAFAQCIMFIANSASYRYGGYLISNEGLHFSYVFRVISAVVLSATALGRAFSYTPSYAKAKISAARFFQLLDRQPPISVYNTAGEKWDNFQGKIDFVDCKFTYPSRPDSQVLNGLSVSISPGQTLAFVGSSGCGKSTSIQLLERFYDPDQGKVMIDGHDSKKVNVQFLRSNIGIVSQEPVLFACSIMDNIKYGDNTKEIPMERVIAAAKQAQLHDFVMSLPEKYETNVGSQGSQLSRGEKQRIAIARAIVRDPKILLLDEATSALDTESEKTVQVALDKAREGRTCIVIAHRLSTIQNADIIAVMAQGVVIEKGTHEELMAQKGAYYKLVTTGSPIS

For `CCN1C(=C/C=C/c2n(CC)c3cc(Cl)c(Cl)cc3[n+]2CC)N(CC)c2cc(Cl)c(Cl)cc21.[I-]`, the Activity (Bile salt export pump [1]) was “is not a substrate [-]”.

For `CC(=O)OCOC(=O)CN(CC(=O)OCOC(C)=O)Cc1c(OC(C)=O)ccc2c1Oc1c(ccc(OC(C)=O)c1CN(CC(=O)OCOC(C)=O)CC(=O)OCOC(C)=O)C21OC(=O)c2ccccc21`, the Activity (Bile salt export pump [1]) was “is not a substrate [-]”.

For `CC(=O)OCOC(=O)CN(CC(=O)OCOC(C)=O)c1ccc(C)cc1OCCOc1cc(-c2c3cc(Cl)c(=O)cc-3oc3cc(OCOC(C)=O)c(Cl)cc23)ccc1N(CC(=O)OCOC(C)=O)CC(=O)OCOC(C)=O`, the Activity (Bile salt export pump [1]) was “is not a substrate [-]”.

For `CC[n+]1cc(N(C)C)cc2ccc(/C=C/C=C/c3ccc(N(C)C)cc3)cc21`, the Activity (Bile salt export pump [1]) was “is not a substrate [-]”.

`CN(CCOC(=O)CI)c1ccc([N+](=O)[O-])c2nonc12` was tested, and the Activity (Bile salt export pump [1]) was “is not a substrate [-]”.

`CC(=O)Oc1cc2c(cc1Cl)C(c1c(C(=O)O)cccc1C(=O)O)c1cc(Cl)c(OC(C)=O)cc1O2.CC(=O)Oc1cc2c(cc1Cl)C(c1cc(C(=O)O)ccc1C(=O)O)c1cc(Cl)c(OC(C)=O)cc1O2` was tested, and the Activity (Bile salt export pump [1]) was “is not a substrate [-]”.

For `CCOc1ccc(-c2nc3cc(-c4nc5cc(N6CCN(C)CC6)ccc5[nH]4)ccc3[nH]2)cc1`, the Activity (Bile salt export pump [1]) was “is not a substrate [-]”.

`O=C(CI)Nc1ccc(-c2c3ccc(=O)cc-3oc3cc(O)ccc23)c(C(=O)O)c1` [5-Iodoacetamidofluorescein] was tested, and the Activity (Bile salt export pump [1]) was “is not a substrate [-]”.

`CN(C)CCCN1c2ccccc2Sc2ccc(Cl)cc21` [CHLORPROMAZINE] showed an IC50 (Bile salt export pump [2]) of 33.5 µM and an IC50 (Bile salt export pump [3]) of 30.9 µM.

`Cc1cc(C)n2c1C=C1C=CC(CCCCCCCCCCCC(=O)OC3CC[C@@]4(C)C(=CC[C@@H]5[C@@H]4CC[C@]4(C)C(C(C)CCCC(C)C)CC[C@@H]54)C3)=[N+]1[B-]2(F)F` (some centres undefined) [CHOLESTERYL BODIPY FL C12] was tested, and the Activity (Bile salt export pump [1]) was “is not a substrate [-]”.

`CN/C(=N/CCSCc1nc[nH]c1C)NC#N` [CIMETIDINE] was tested, and the Activity (Bile salt export pump [2]) was “is not an inhibitor [-]” and the Activity (Bile salt export pump [3]) was “is not an inhibitor [-]”.

`CC(C)/N=c1\cc2n(-c3ccc(Cl)cc3)c3ccccc3nc-2cc1Nc1ccc(Cl)cc1` [CLOFAZIMINE] gave an IC50 (Bile salt export pump [2]) of 28.7 µM.

`COc1cccc2c1C(=O)c1c(O)c3c(c(O)c1C2=O)C[C@@](O)(C(C)=O)C[C@@H]3O[C@H]1C[C@H](N)[C@H](O)[C@H](C)O1` [DAUNORUBICIN] was tested, and the Activity (Bile salt export pump [1]) was “is not a substrate [-]”.

`COc1cccc2c1C(=O)c1c(O)c3c(c(O)c1C2=O)C[C@@](O)(C(=O)CO)C[C@@H]3O[C@H]1C[C@H](N)[C@H](O)[C@H](C)O1` [DOXORUBICIN] was tested, and the Activity (Bile salt export pump [1]) was “is not a substrate [-]”.

In the case of `O=C(O[C@@H]1Cc2c(O)cc(O)cc2O[C@@H]1c1cc(O)c(O)c(O)c1)c1cc(O)c(O)c(O)c1` [EPIGALOCATECHIN GALLATE], the Activity (Bile salt export pump [2]) is reported as “is not an inhibitor [-]” and the IC50 (Bile salt export pump [3]) is reported as 214 µM.

`O=C1OC2(c3ccc(O)cc3Oc3cc(O)ccc32)c2ccccc21` [FLUORESCEIN] was tested, and the Activity (Bile salt export pump [1]) was “substrate [+]”.

With `O=C(O)c1ccccc1C1c2ccc(O)cc2Oc2cc(O)ccc21` [FLUORESCIN] the Activity (Bile salt export pump [1]) was “substrate [+]”.

In the case of `C=C[C@H]1C[N@@]2CC[C@H]1C[C@@H]2[C@@H](O)c1ccnc2ccc(OC)cc12` [QUINIDINE], the Activity (Bile salt export pump [2]) is reported as “is not an inhibitor [-]”.

`COC(=O)[C@H]1[C@H]2C[C@@H]3c4[nH]c5cc(OC)ccc5c4CCN3C[C@H]2C[C@@H](OC(=O)c2cc(OC)c(OC)c(OC)c2)[C@@H]1OC` [RESERPINE] was tested, and the IC50 (Bile salt export pump [2]) was 10.2 µM and the Activity (Bile salt export pump [3]) was “is not an inhibitor [-]”.

In the case of `COC(=O)c1ccccc1-c1c2ccc(=N)cc-2oc2cc(N)ccc12.Cl` [RHODAMINE123], the Activity (Bile salt export pump [1]) is reported as “is not a substrate [-]”.

In the case of `CO[C@H]1/C=C/O[C@@]2(C)Oc3c(C)c(O)c4c(O)c(cc(O)c4c3C2=O)NC(=O)/C(C)=C\C=C\[C@H](C)[C@H](O)[C@@H](C)[C@@H](O)[C@@H](C)[C@H](OC(C)=O)[C@@H]1C` [RIFAMYCIN], the IC50 (Bile salt export pump [2]) is reported as 12.2 µM and the IC50 (Bile salt export pump [3]) is reported as 206 µM.

For `C[C@H](CCC(=O)NCCS(=O)(=O)O)[C@H]1CC[C@H]2[C@@H]3CC[C@@H]4C[C@H](O)CC[C@]4(C)[C@H]3CC[C@]12C` [TAUROLITHOCHOLIC ACID], the IC50 (Bile salt export pump [2]) was 189 µM and the Activity (Bile salt export pump [3]) was “is not an inhibitor [-]”.

`CN(C)c1ccc2c(-c3ccc(CCl)cc3)c3ccc(=[N+](C)C)cc-3oc2c1.[Br-]` [TETRAMETHYLROSAMINE] was tested, and the Activity (Bile salt export pump [1]) was “is not a substrate [-]”.

`Cc1c(C)c2c(c(C)c1O)CCC(C)(COc1ccc(CC3SC(=O)NC3=O)cc1)O2` (centres undefined) [TROGLITAZONE] showed an IC50 (Bile salt export pump [2]) of 66.4 µM.

In the case of `CC(C)[C@@H]1NC(=O)[C@H](C)OC(=O)[C@@H](C(C)C)NC(=O)[C@@H](C(C)C)OC(=O)[C@H](C(C)C)NC(=O)[C@H](C)OC(=O)[C@@H](C(C)C)NC(=O)[C@@H](C(C)C)OC(=O)[C@H](C(C)C)NC(=O)[C@H](C)OC(=O)[C@@H](C(C)C)NC(=O)[C@@H](C(C)C)OC1=O` [VALINOMYCIN], the IC50 (Bile salt export pump [2]) is reported as 7.2 µM and the Activity (Bile salt export pump [3]) is reported as “is not an inhibitor [-]”.

For `CC[C@]1(O)C[C@@H]2CN(CCc3c([nH]c4ccccc34)[C@@](C(=O)OC)(c3cc4c(cc3OC)N(C)[C@H]3[C@@](O)(C(=O)OC)[C@H](OC(C)=O)[C@]5(CC)C=CCN6CC[C@]43[C@@H]65)C2)C1` [VINBLASTINE], the IC50 (Bile salt export pump [2]) was 62 µM and the IC50 (Bile salt export pump [3]) was 115 µM.
